Experimental data reported in ChEMBL document CHEMBL5143694, “A novel survivin dimerization inhibitor without a labile hydrazone linker induces spontaneous apoptosis and synergizes with docetaxel in prostate cancer cells” (Bioorg Med Chem, 2022).
pIC50: −log10 of the molar value. Activity calls are given as the source filed them. No cut-off for these calls is given here.

Columns and labels:
PC-3 [1] = assay: Synergistic potentiation of docetaxel-induced cytotoxicity against human PC-3 cells assessed as combination index for reduction in cell viability at docetaxel/7F1 ratios ((1:1, 3:1, and 1:3 using their cytotoxic IC50) incubated for 72 hrs by methylene blue survival assay; type: functional
LNCaP C4-2 [2] = assay: Cytotoxicity against human LNCaP C4-2 cells assessed as inhibition of cell survival at 2.5 uM incubated for 72 hrs by methylene blue survival assay; type: functional
PC-3 [3] = assay: Cytotoxicity against human PC-3 cells assessed as reduction in cell viability incubated for 72 hrs by methylene blue survival assay; type: functional, cell-based; settings: PC-3, 72 h
[4] = target: Baculoviral IAP repeat-containing protein 5 (Homo sapiens) (UniProt O15392); assay: Inhibition of survivin dimerization in human PC-3 cells assessed as survivin degradation at 1 uM incubated for 24 hrs by Western blot analysis; type: cell-based
LNCaP C4-2 [5] = assay: Induction of apoptosis in human LNCaP C4-2 cells assessed as increase in cleaved caspase-3 level at 200 nM incubated for 24 hrs by Western blot analysis; type: functional, cell-based
PC-3 [6] = assay: Induction of apoptosis in human PC-3 cells assessed as increase in cleaved caspase-3 level at 200 nM incubated for 24 hrs by Western blot analysis; type: functional, cell-based
[7] = target: Baculoviral IAP repeat-containing protein 5 (Homo sapiens) (UniProt O15392); assay: Inhibition of survivin dimerization in human PC-3 cells assessed as survivin degradation at 500 nM incubated for 24 hrs by Western blot analysis; type: cell-based
LNCaP C4-2 [8] = assay: Cytotoxicity against human LNCaP C4-2 cells assessed as reduction in cell viability incubated for 72 hrs by methylene blue survival assay; type: functional, cell-based; settings: LNCaP C4-2, 72 h
LNCaP C4-2 [9] = assay: Synergistic potentiation of docetaxel-induced cytotoxicity against human LNCaP C4-2 cells assessed as combination index for reduction in cell viability at docetaxel/7F1 ratios ((1:1, 3:1, and 1:3 using their cytotoxic IC50) incubated for 72 hrs by methylene blue survival assay; type: functional
LNCaP C4-2 [10] = assay: Cytotoxicity against human LNCaP C4-2 cells with empty vector-transfection assessed as reduction in cell viability incubated for 72 hrs by methylene blue survival assay; type: functional, cell-based; settings: LNCaP C4-2, 72 h
[11] = target: Baculoviral IAP repeat-containing protein 5 (Homo sapiens) (UniProt O15392); assay: Inhibition of survivin dimerization in human LNCaP C4-2 cells assessed as survivin degradation at 500 nM incubated for 24 hrs by Western blot analysis; type: cell-based
[12] = target: Baculoviral IAP repeat-containing protein 5 (Homo sapiens) (UniProt O15392); assay: Inhibition of survivin dimerization in human LNCaP C4-2 cells assessed as survivin degradation at 1 uM incubated for 24 hrs by Western blot analysis; type: cell-based
PC-3 [13] = assay: Cytotoxicity against human PC-3 cells assessed as inhibition of cell survival at 2.5 uM incubated for 72 hrs by methylene blue survival assay; type: functional
[14] = target: Baculoviral IAP repeat-containing protein 5 (Homo sapiens) (UniProt O15392); assay: Inhibition of survivin-GAL4-DBD dimerization (unknown origin) expressed in human LNCaP C4-2 cells incubated for 24 hrs by SEAP reporter based mammalian two hybrid assay; type: cell-based
PC-3 [15] = assay: Induction of apoptosis in human PC-3 cells at 200 nM incubated for 24 hrs by annexin V-FITC and propidium iodide staining based flow cytometry; type: functional
LNCaP C4-2 [16] = assay: Cytotoxicity against human LNCaP C4-2 cells with survivin overexpression assessed as reduction in cell viability incubated for 72 hrs by methylene blue survival assay; type: functional, cell-based; settings: LNCaP C4-2, 72 h
LNCaP C4-2 [17] = assay: Induction of apoptosis in human LNCaP C4-2 cells at 200 nM incubated for 24 hrs by annexin V-FITC and propidium iodide staining based flow cytometry; type: functional

Baculoviral IAP repeat-containing protein 5 (Homo sapiens), sequence (O15392 whole entry, the tested form may be a part): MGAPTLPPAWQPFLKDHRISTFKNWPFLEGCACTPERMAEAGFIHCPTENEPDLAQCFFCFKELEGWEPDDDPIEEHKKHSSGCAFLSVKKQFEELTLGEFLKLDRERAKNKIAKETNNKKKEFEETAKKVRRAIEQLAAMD

SMILES | CI (PC-3 [1]) | inhibition at 2.5 µM (LNCaP C4-2 [2]) [%] | pIC50 (PC-3 [3]) | inhibition [4] | Activity (LNCaP C4-2 [5]) | Activity (PC-3 [6]) | inhibition [7] | pIC50 (LNCaP C4-2 [8]) | CI (LNCaP C4-2 [9]) | pIC50 (LNCaP C4-2 [10]) | inhibition [11] | inhibition [12] | inhibition at 2.5 µM (PC-3 [13]) [%] | inhibition [14] | Activity (PC-3 [15]) [%] | pIC50 (LNCaP C4-2 [16]) | Activity (LNCaP C4-2 [17]) [%]
O=C1c2ccccc2-c2nc3nonc3nc21 | 0.025 | 80 | 6.80 | Active | Active | Active | Active | 6.77 | 0.025 | 6.70 | Active | Active | > 80 | Active | 20 | 6.02 | 20
Nc1nonc1C(=O)N/N=C1\c2ccccc2-c2nc3nonc3nc21 |  | 50 | 5.52 | Active |  |  |  | 5.61 |  |  |  | Active | 50 | Active |  |  | 
